Data published in patent US6495584B1, “Use of 3-(1H-imidazol-4-ylmethyl)-indan-5-ol in the manufacture of a medicament for intraspinal, intrathecal or epidural administration” (Orion Corporation, priority 1998, dated 2002).
Like-named read-outs stand apart in the source and are kept apart here.

How the values were obtained:
physchem = test: physchem
Protocol: The hydrochloride salts of the above compounds were shaken for 90 minutes in a separatory funnel at room temperature with equal volumes (1:1, v/v) of an organic phase (water saturated 1-octanol) and an aqueous solution (0.1 M HCI or 67 mM phosphate buffer pH 7.4), separating the two phases. The quantitations of the amounts of the studied compounds were performed by the RP-HPLC (reverse phase high pressure liquid chromatography) technique. […] As a mobile phase, methanol: 15 mM phosphate buffer pH2 at the ratio 50:50 (v/v) was used.
The partition coefficient (P) is a ratio of the equilibrium concentrations of a solute in a lipophilic environment (1-octanol) and water (P=coct/cwater). The logarithm of the partition coefficient (logP) is used as a lipophilicity parameter for a neutral molecule. D is the partition coefficient measured at a pH where the molecules are partly or totally ionized.

rat [1] = test: Tail-flick analgesia test; assay type: in vivo
Protocol: (§1) There were 8 rats in each group tested.
Tail-flick analgesia was tested by a tail-flick analgesy meter (Ugo Basile, Italy). The analgesia testing was done no earlier than four days after the catheterization. The rats were always habituated to the immobilization chambers that were used in the analgesia measurements. The tail of the rat was outside the chamber and it was placed on the heating spot of the apparatus. Thus, the hot infrared beam would hit the tail. When the rat reacted and moved the tail away from the beam, the analgesy meter automatically measured the latency of the tail-withdrawal. The tail-flick measurement was always repeated three times, one after another, to diminish the effect of a possible unspecific reaction. […] The maximal latency (cut-off time) was set to 5 seconds in order to prevent burns of the tail. The predrug tail-flick latencies were first measured, and then the rats were administered 10 μl of the drug solution by a Hamilton syringe. Immediately thereafter the catheter was washed with 10 μl of sterile saline, and the tip was sealed by a lighter. The analgesia was tested after 30 minutes from the administration of the drug by measuring tail-flick analgesia as described above.
The tail-flick analgesia data were represented as MPE% values (maximum possible effect %). The tail-flick latencies (mean of three measurements) were calculated as MPE% values as follows: (postdrug latency−predrug latency)/(cut-off time−predrug latency)×100%. The dose-response curves were drawn of the MPE% values, and the dose was on a logarithmic scale (see FIG. 1). […] 1.03 (San Diego, USA) software.
(§2) The analgesic activity and sedative effect after intravenous (to the tail vein) and subcutaneous administration were studied according to the methods described in Example 2.

in vivo = settings: Sprague-Dawley, rat
Protocol: as §1
(§3) Sedative effects (effects on motor activity) were measured in a polypropylene animal cage (38×22×15 cm) with a transparent polypropylene lid by Photobeam Activity System (PAS, Cage Rack, San Diego Instruments, San Diego, USA). The system consists of 16 separate enclosures connected to a computer control unit. There were three photobeams in each enclosure. The enclosures surrounded the cage at the height of 5 cm. The breaking of beams was counted as locomotor activity.
as §2

rat [2] = test: in vivo
Protocol: as §1, §3, §2

rat [3] = settings: Sprague-Dawley, in vivo
Description: (§4) The rats (Sprague-Dawley, B&K, Sollentuna, Sweden) were anaesthetized by midazolam and fentanyl-fluanisone combination anaesthesia and then chronically catheterized according to the method described by Yaksh and Rudy (Physiology & Behaviour 17,1031-1036, 1976). Briefly, the atlanto-occipital membrane of the spine (directly below the skull) was incised. A polyethylene catheter (PE10 Intramedic, USA) filled with sterile saline was carefully and slowly pushed 8 cm into the spinal cavity. The end of the catheter is known to reach the close proximity of the lumbar enlargement of the spine. The location of the end of the catheter was tested by administering 0.5 mg lidocain approximately 3 days after catheterization. If both hindlegs were paralyzed, the rat was used in the drug tests.
Effects on gastrointestinal motility were measured in separate animals as follows (the charcoal propulsion test). The rats (8/group) were fasted overnight and were randomized according to the latin square design. 30 minutes after the administration of the drugs, a 10% charcoal suspension in 0.25% Na-carboxy-methylcellulose was administered perorally by a gavage. […] The distance of the charcoal suspension from the pylorus in the intestine was measured. […] The ED50 value of the dose-response graph was determined by the Graph Pad Prism v. […]

rat [4] = test: Motor coordination: rotarod treadmill; settings: intrathecal, 15 minutes after injection
Description: as §4
(§5) The effect on motor coordination was evaluated by a rotarod treadmill for rats (Ugo Basile, Italy). It consists of four drums (diameter of 70 mm) separated by five flanges. The drums were adjusted to rotate 4 revolutions per minute. The rod was rotated against the direction of the rat, so it had to walk forward to stay on the rod. […]
(§6) Fifteen minutes after the drug injection, the rat was placed on the rotarod apparatus, and the falling time was measured. […] The dose-response curves were drawn on a logarithmic scale, and the ED50 values were determined graphically from these.

rat [5] = settings: Sprague-Dawley, in vivo, 15 min
Description: as §4, §5, §6

Compound	logD at 90 min (physchem; pH 1)	logD at 90 min (physchem; pH 7.4)	ED50 (rat [1]; central, intrathecal (it), Table 2 result per rat multiplied by 3)	ED50 Analgesia (tail-flick test) (rat [1]; intrathecal, 30 minutes after administration)	ED50 (rat [1]; intravenous (iv))	ED50 (rat [1]; subcutaneous (sc))	ED50 at 10 min (in vivo)	ED50 at 10 min (in vivo; sc)	Sedation at an analgesic dose (rat [2])	ED50 Inhib. of GI motility (rat [3])	ED50 Loss of motor coordin. (decrease in rotarod performance) (rat [4])	ED50 Loss of motor coordin. (decrease in rotarod performance) (rat [5])	ED50 Analgesia (tail-flick test) (rat [1]; in vivo)
Oc1ccc2c(c1)C(Cc1c[nH]cn1)CC2 (centres unmarked) [Compound A, 3-(1H-imidazol-4-ylmethyl)-indan-5-ol]	-0.69	1.91	0.0021 mg/kg	0.7 µg/rat	> 0.03 mg/kg	> 0.3 mg/kg	0.09 mg/kg	0.08 mg/kg	not to induce sedation	5.7 µg/rat	> 30 µg/rat	–	–
Clc1cccc(Cl)c1N=C1NCCN1 [Compound B, clonidine, reference compound]	–	–	–	–	–	–	–	–	–	3.5 µg/rat	–	>10 g/rat	–
clonidine [Compound B, reference compound]	–	–	–	–	–	–	–	–	–	–	–	–	6.4 µg/rat
